Results as given in paper PMC12631982, “Expected and Unexpected “Guests” at the Active Site of Human Orotidine 5′-Monophosphate Decarboxylase” (Biochemistry, 2025).
Values joined by “and” are separate entries in the source; they are usually repeats but may differ in a detail not shown here. Equal values may be shown once. “Also recorded” adds a separate entry of the source. Read-outs that look alike come from different tables or passages of the source. Values belong to the molecule of their own block, whether it stands above or below them.

Tests used:
[1] = target: T1, OMPDC Thr321Asn (Homo sapiens, UniProt P11172, T321N); experiment: Kinetic ITC with OMPDC variant Thr321Asn; format: biochemical
T1 construct: OMPDC Thr321Asn was generated via site-directed mutagenesis; made in house
Description: (§1) For steady-state kinetic analysis, 20 μM OMPDC and 1 mM OMP were used at a cell temperature of 25 °C. The reference power was set to 8 μcal/s, the stirring power to 750 rpm, and two injections of 10 μL each were performed. For competitive inhibition studies, the substrate concentration remained the same while the ligand concentration was varied.

[2] = target: T2, human OMPDC (Homo sapiens, UniProt P11172); experiment: ITC-based steady-state kinetics / activity assay of OMPDC; format: biochemical; conditions: wild-type
T2 construct: Overexpression of human OMPDC in Escherichia coli; made in house; host or cells: Escherichia coli
Description: (§2) Steady-state kinetics of OMPDC conversion and thermodynamics of ligand binding were conducted using a PEAK-ITC instrument (Malvern Panalytical) in 20 mM HEPES/NaOH, pH 7.4, at 25 °C. The substrate OMP trisodium salt and the ligands UMP, GMP, XMP, and TMP were purchased from Sigma-Aldrich (purity >99%).
as §1, with “varied. The experiments are summarized below:” for “varied.”
OMPDC with OMP and 5-methyl OMP: 70/100 μM OMPDC, 1 mM OMP, 5-methyl OMP (1 mM), buffer (HEPES 0.02 M, pH 7.4), reference power ITC 8 μcal/s, stirring speed 750 rpm, cell temperature 25 °C, 2 injections of 10 μL each.
OMPDC with OMP: 20 μM OMPDC, 1 mM OMP, buffer (HEPES 0.02 M, pH 7.4), reference power ITC 8 μcal/s, stirring speed 750 rpm, cell temperature 25 °C, 2 injections of 10 μL each.
The data sets were evaluated via Microsoft Excel, and the decarboxylation rates were fitted in OriginPro 2020 according to the Hill equation.

[3] = target: T2, human OMPDC; experiment: X-ray crystallography, soaking / cocrystallization of ligands; conditions: wild-type, in crystallo
Description: OMPDC crystals were grown for at least 3 days at 20 °C using the hanging drop diffusion method with Crystalgen SuperClear Plates (Jena Bioscience) as previously described. , The crystals were gradually transferred to increasing concentrations of cryo-solution (100 mM Tris/HCl pH 8.0, 2 M (NH4)2SO4, 10 mM glutathione pH 8.0, 0.25–1 M L-proline). After the crystals were adjusted to 1 M L-proline cryo-solution, various ligands were used for soaking experiments. […] The crystals were flash-cooled in liquid nitrogen and stored at these temperatures until the diffraction experiments were conducted.
OMPDC was also cocrystallized with XMP, UMP, and GMP. For this, a final protein concentration of 4.5 mg/mL and 25 mM ligand were used in 20 mM HEPES/NaOH, pH 7.4. The solution was mixed in a 1 + 1 ratio with the reservoir solution. Plates were stored at 20 °C, and crystals grew overnight. After 1 week, crystals were transferred to cryo-solution supplemented with 25 mM XMP/UMP/GMP. The cocrystallized crystals were flash-cooled in liquid nitrogen and stored until use.
The structures of OMPDC with the different ligands were determined by processing the diffraction data with the XDS program suite. […]

[4] = target: T2, human OMPDC; experiment: Thermodynamic ITC ligand binding to human OMPDC wild-type; conditions: for binding detected by thermodynamic ITC: 25 °C; for ΔH (first binding phase, K D1) / ΔH (second binding phase, K D2): Sedphat analysis
Description: as §2
Isothermal titration calorimetry (ITC) is used to determine the dissociation constant (K D) of a protein–ligand interaction by measuring the heat released or absorbed during binding. In practice, the ligand is sequentially titrated into a solution containing the protein in the reaction cell. As the binding sites become saturated over time, no additional heat changes are detected. The resulting thermogram is then converted into a binding isotherm, which can be used to calculate all relevant thermodynamic parameters. Thereby, the (K D) follows the general reaction, where the enzyme (E), by addition of a ligand (L), forms an enzyme-ligand complex (EL) E+L↔KaEL
The following parameters for the binding experiments were used:
OMPDC with UMP: 195 μM OMPDC, 2.08 mM UMP, buffer (HEPES 0.02 M, pH 7.4), reference power ITC 8 μcal/s, stirring speed 750 rpm, cell temperature 25 °C, one injection of 0.4 μL and 18 injections of 2 μL UMP, 120 s spacing.*
OMPDC with 5-methyl OMP: 195 μM OMPDC, 4.61 mM 5-methyl OMP, buffer (HEPES 0.02 M, pH 7.4), reference power ITC 10 μcal/s, stirring speed 750 rpm, cell temperature 25 °C, 1 injection of 0.4 μL and 18 injections of 2 μL 5-methyl OMP, 120 s spacing.*
OMPDC with dTMP: 186 μM OMPDC, 5 mM dTMP, buffer (HEPES 0.02 M, pH 7.4), reference power ITC 8 μcal/s, stirring speed 750 rpm, cell temperature 25 °C, 1 injection of 0.4 μL and 18 injections of 2 μL dTMP, 120 s spacing.
OMPDC with XMP: 194 μM OMPDC, 1.5 mM XMP, buffer (HEPES 0.02 M, pH 7.4), reference power ITC 8 μcal/s, stirring speed 750 rpm, cell temperature 25 °C, 1 injection of 0.4 μL and 18 injections of 2 μL XMP 120 s spacing.*
OMPDC with YMP: 200 μM OMPDC, 2.03 mM YMP, buffer (HEPES 0.02 M, pH 7.4), reference power ITC 8 μcal/s, stirring speed 750 rpm, cell temperature 25 °C, 1 injection of 0.4 μL and 18 injections of 2 μL YMP, 120 s spacing.
OMPDC with CMP: 200 μM OMPDC, 1.80 mM CMP, buffer (HEPES 0.02 M, pH 7.4), reference power ITC 10 μcal/s, stirring speed 750 rpm, cell temperature 25 °C, 1 injection of 0.4 μL and 18 injections of 2 μL CMP, 120 s spacing.*
OMPDC with 2′-deoxy UMP: 211 μM OMPDC, 9.04 mM 2′-deoxy UMP, buffer (HEPES 0.02 M, pH 7.4), reference power ITC 10 μcal/s, stirring speed 750 rpm, cell temperature 25 °C, 1 injection of 0.4 μL and 18 injections of 2 μL 2′-deoxy UMP, 120 s spacing.
OMPDC with GMP: 184 μM OMPDC, 10 mM GMP, buffer (HEPES 0.02 M, pH 7.4), reference power ITC 8 μcal/s, stirring speed 750 rpm, cell temperature 25 °C, 1 injection of 0.4 μL and 18 injections of 2 μL GMP, 120 s spacing.
(§3) The raw files were analyzed using the software provided by the instrument manufacturer. Marked data sets (*) were integrated using NitPic version 1.2.7 and fitted with Sedphat version 14.0. Final graphs were created with OriginPro 2020.

[5] = target: T1, OMPDC Thr321Asn; experiment: Thermodynamic ITC ligand binding to OMPDC variant Thr321Asn
Description: as §2
OMPDC T321N′ with dTMP: 211 μM OMPDC T321N′, 2 mM dTMP, buffer (HEPES 0.02 M, pH 7.4), reference power ITC 10 μcal/s, stirring speed 750 rpm, cell temperature 25 °C, 1 injection of 0.4 μL and 18 injections of 2 μL dTMP, 120 s spacing.
as §3

[6] = ITC at 25 °C, 20 mM HEPES pH 7.4, wild-type, single dissociation constant, read-out: K D
[7] = ITC at 25 °C, wild-type, first of two dissociation constants (Sedphat analysis), read-out: K D1
[8] = ITC at 25 °C, wild-type, second of two dissociation constants (Sedphat analysis), read-out: K D2

SMILES: O=C(O)c1cc(=O)[nH]c(=O)n1[C@H]1C[C@H](O)[C@@H](COP(=O)(O)O)O1 [2′-deoxy OMP]
- enzymatic activity [1]: too low to be reliably measured
- enzymatic turnover [2]: no binding or turnover was detected
- ligand bound in crystal structure [3]: does not bind

SMILES: Cc1c(C(=O)O)n(C2OC(COP(=O)(O)O)C(O)C2O)c(=O)[nH]c1=O (centres unmarked) [5-MeOMP, 5-methyl OMP]
- enzymatic turnover [2]: unable to detect enzymatic turnover
- Kd [4, 6]: 404 nM and 400 nM
- n (stoichiometry) ([4]; ITC at 25 °C, wild-type): 1.54 ± 0.01
- ΔG ([4]; ITC at 25 °C, wild-type): –8.78 ± 0.19 kcal/mol
- ΔH ([4]; ITC at 25 °C, wild-type): –1.20 ± 0.03 kcal/mol
- –TΔS ([4]; ITC at 25 °C, wild-type): –7.58 ± 0.26 kcal/mol

SMILES: Nc1nc2c(ncn2[C@@H]2O[C@H](COP(=O)(O)O)[C@@H](O)[C@H]2O)c(=O)[nH]1 [GMP, guanosine-5′-monophosphate]
- binding detected by thermodynamic ITC ([4]; wild-type): No binding could be detected; also recorded: no measurable binding heat was detected; also recorded: did not bind at all
- ligand bound in crystal structure [3]: no ligand was bound to the active site

SMILES: O=c1[nH]c(=O)c2ncn([C@@H]3O[C@H](COP(=O)(O)O)[C@@H](O)[C@H]3O)c2[nH]1 [XMP, xanthosine-5′-monophosphate]
- ΔH (first binding phase, K D1) ([4]; ITC at 25 °C, wild-type): –1.86 ± 0.10 kcal/mol
- ΔH (second binding phase, K D2) ([4]; ITC at 25 °C, wild-type): –5.57 ± 0.07 kcal/mol
- Kd [4, 7]: 210 ± 30 nM
- Kd [4, 8]: 180 ± 20 nM
- Kd ([4]; ITC, wild-type, first of two dissociation constants, read-out: Dissociation constant KD1): 213 nM
- Kd ([4]; ITC, wild-type, second of two dissociation constants, read-out: K D2): 182 ± 18 nM

SMILES: Cc1cn([C@H]2C[C@H](O)[C@@H](COP(=O)(O)O)O2)c(=O)[nH]c1=O [dTMP, thymidine-5′-monophosphate]
- Kd ([5]; ITC): 431 ± 44 nM
- Kd ([5]; ITC at 25 °C): 430 ± 40 nM
- n (stoichiometry) ([5]; ITC at 25 °C): 0.64 ± 0.02
- ΔG ([5]; ITC at 25 °C): –8.69 ± 0.08 kcal/mol
- ΔH ([5]; ITC at 25 °C): –14.3 ± 0.1 kcal/mol
- –TΔS ([5]; ITC at 25 °C): 5.60 ± 0.06 kcal/mol
- Kd [4, 6]: 119000 nM
- n (stoichiometry) ([4]; ITC at 25 °C, wild-type): 0.64 ± 0.03
- ΔG ([4]; ITC at 25 °C, wild-type): –5.37 ± 0.09 kcal/mol
- ΔH ([4]; ITC at 25 °C, wild-type): –4.74 ± 0.29 kcal/mol
- –TΔS ([4]; ITC at 25 °C, wild-type): –0.63 ± 0.88 kcal/mol
- Kd ([4]; ITC at 25 °C, wild-type, single dissociation constant, read-out: Dissociation constant (KD)): 118000 nM

Next, values leading:

- binding detected by thermodynamic ITC ([4]; wild-type): no binding
- binding detected by thermodynamic ITC ([4]; wild-type, listed as deoxy UMP): No binding could be detected
SMILES: O=c1ccn([C@H]2C[C@H](O)[C@@H](COP(=O)(O)O)O2)c(=O)[nH]1 [2′-deoxy UMP, 2′-deoxy uridine 5′-monophosphate]

- ΔH (first binding phase, K D1) ([4]; ITC at 25 °C, wild-type): –2.30 ± 0.08 kcal/mol
- ΔH (second binding phase, K D2) ([4]; ITC at 25 °C, wild-type): –7.08 ± 0.56 kcal/mol
- Kd [4, 7]: 4730 ± 1090 nM
- Kd [4, 8]: 8330 ± 1060 nM
SMILES: Nc1ccn([C@@H]2O[C@H](COP(=O)(O)O)[C@@H](O)[C@H]2O)c(=O)n1 [CMP, cytidine-5′-monophosphate]

- n (stoichiometry) ([4]; ITC at 25 °C, wild-type): 0.98 ± 0.01
- ΔH (first binding phase, K D1) ([4]; ITC at 25 °C, wild-type): –1.03 ± 0.06 kcal/mol
- ΔH (second binding phase, K D2) ([4]; ITC at 25 °C, wild-type): –2.1 ± 0.1 kcal/mol
- Kd [4, 7]: 2600 ± 1200 nM
- Kd [4, 8]: 6700 ± 800 nM
- Kd ([4]; ITC, wild-type, second of two dissociation constants, read-out: Dissociation constant KD2): 6730 nM
SMILES: O=c1ccn([C@@H]2O[C@H](COP(=O)(O)O)[C@@H](O)[C@H]2O)c(=O)[nH]1 [UMP, uridine 5′-monophosphate]
